Patent US6964949B2, “Pharmaceutical compositions for promoting the growth of gram-positive bacilli and increasing the acidity in the vagina and the use thereof” (Shanghai Jiao Da Onlly Co., Ltd., priority 2000, dated 2005)

Assays:
Format in all cases: cell-based
Settings in all cases: 1.0% yeast extract, pH 6.2, candle jar, 37° C.
[1] = test system: vaginal secretion specimen of a patient suffering from typical bacterial vaginosis; experiment: Experiment Example 2: pH of culture samples (production of acids)
Excerpt: (§1) • (1)The preparation of the compositions: Different saccharides were used respectively to prepare the following compositions according to the methods mentioned above: glucose, fructose, galactose, mannose, maltose, sucrose, lactose, lactulose, mycose, cellobiose, melibiose, melitose, malto-oligosaccharide, isomaltooligosaccharide and fructooligosaccharide, dextrin, starch, and glycogen: • A. 5% glucose, 1.0% yeast extract, 1.6% xanthan gum, pH adjusted to 6.2; • B. 5% fructose, 1.0% yeast extract, 1.6% xanthan gum, pH adjusted to 6.2; • C. 5% galactose, 1.0% yeast extract, 1.6% xanthan gum, pH adjusted to 6.2; • D. 5% mannose, 1.0% yeast extract, 1.6% xanthan gum, pH adjusted to 6.2; • E. 10.0% maltose, 1.0% yeast extract, 1.6% xanthan gum, pH adjusted to 6.2; • F. 10.0% sucrose, 1.0% yeast extract, 1.6% xanthan gum, pH adjusted to 6.2; • G. 10.0% lactose, 1.0% yeast extract, 1.6% xanthan gum, pH adjusted to 6.2; • H. 10.0% lactulose, 1.0% yeast extract, 1.6% xanthan gum, pH adjusted to 6.2; • I. 10.0% cellobiose, 1.0% yeast extract, 1.6% xanthan gum, pH adjusted to 6.2; • J. 10.0% mycose, 1.0% yeast extract, 1.6% xanthan gum, pH adjusted to 6.2; • K. 10.0% melibiose, 1.0% yeast extract, 1.6% xanthan gum, pH adjusted to 6.2; • L. 10.0% melitose, 1.0% yeast extract, 1.6% xanthan gum, pH adjusted to 6.2; • M. 10.0% maltooligosaccharide, 1.0% yeast extract, 1.6% xanthan gum, pH adjusted to 6.2; • N. 10.0% isomaltooligosaccharide, 1.0% yeast extract, 1.6% xanthan gum, pH adjusted to 6.2; • O. 10.0% fructooligosaccharide, 1.0% yeast extract, 1.6% xanthan gum, pH adjusted to 6.2; • P. 10.0% dextrin, 1.0% yeast extract, 0.5% xanthan gum, pH adjusted to 6.2; • Q. 10.0% starch, 1.0% yeast extract, pH adjusted to 6.2; • R. 10.0% glycogen, 1.0% yeast extract, 1.6% xanthan gum, pH adjusted to 6.2. • (2)The preparation of the test tubes: The compositions prepared above were filled into test tubes, with each tube containing 5 ml, sterilized, and kept until use for experiment. • (3) Specimen suspension: Vaginal secretion was taken from one of the patients suffering from typical bacterial vagmosis with a cotton swab, then the swab was washed in 2 ml sterilized Trypcase-soy Broth immediately, and thus the specimen suspension was ready. […] Then the tubes were placed in a candle jar and cultivated at 37° C. After 24 hours and 48 hours' culture, culture samples were taken respectively from each of the tubes, then the Gram smears of the samples were observed and the pH values of culture samples were tested. […] Meanwhile the pH values in most of the composition tubes decreased to different levels. […] And maltose and sucrose exert better effect in promoting the growth of Gram-positive bacilli and the production of acids than that of the other kinds of oligosaccharides.

[2] = test system: Gram-positive cocci; experiment: Experiment Example 2: comparison of saccharides, specimen culture, Gram smear
Excerpt: as §1

[3] = test system: Gram-negative cocci; experiment: as above
Excerpt: as §1

[4] = test system: Gram-positive bacilli; experiment: as above
Excerpt: as §1

[5] = test system: Gram-negative bacilli; experiment: as above
Excerpt: as §1

[6] = 5% saccharide, 1.6% xanthan gum
[7] = 10.0% saccharide, 1.6% xanthan gum (dextrin 0.5%, starch none)

Compound	pH, 24 hours-culture [1, 6]	pH, 48 hours-culture [1, 6]	Bacteria G + c (Gram-positive cocci), 24 hours-culture [2, 6]	Bacteria G + c (Gram-positive cocci), 48 hours-culture [2, 6]	Bacteria G − c (Gram-negative cocci), 24 hours-culture [3, 6]	Bacteria G − c (Gram-negative cocci), 48 hours-culture [3, 6]	Bacteria G + b (Gram-positive bacilli), 24 hours-culture [4, 6]	Bacteria G + b (Gram-positive bacilli), 48 hours-culture [4, 6]	Bacteria G − b (Gram-negative bacilli), 24 hours-culture [5, 6]	Bacteria G − b (Gram-negative bacilli), 48 hours-culture [5, 6]	pH, 24 hours-culture [1, 7]	pH, 48 hours-culture [1, 7]	Bacteria G + c (Gram-positive cocci), 24 hours-culture [2, 7]	Bacteria G + c (Gram-positive cocci), 48 hours-culture [2, 7]	Bacteria G − c (Gram-negative cocci), 24 hours-culture [3, 7]	Bacteria G − c (Gram-negative cocci), 48 hours-culture [3, 7]	Bacteria G + b (Gram-positive bacilli), 24 hours-culture [4, 7]	Bacteria G + b (Gram-positive bacilli), 48 hours-culture [4, 7]	Bacteria G − b (Gram-negative bacilli), 24 hours-culture [5, 7]	Bacteria G − b (Gram-negative bacilli), 48 hours-culture [5, 7]
O=C[C@H](O)[C@@H](O)[C@@H](O)[C@H](O)CO [Galactose, galactose]	6.7	6.7	G + c, ++ (About 10-99 bacteria per field of vision under oil-immersion lens)	G + c, ++ (About 10-99 bacteria per field of vision under oil-immersion lens)	G − c, − (No or less than one bacterium per field of version under oil-immersion lens)	G − c, − (No or less than one bacterium per field of version under oil-immersion lens)	G + b, ++ (About 10-99 bacteria per field of vision under oil-immersion lens)	G + b, + (1-9 bacteria per field of vision under oil-immersion lens)	G − b, − (No or less than one bacterium per field of version under oil-immersion lens)	G − b, + (1-9 bacteria per field of vision under oil-immersion lens)	–	–	–	–	–	–	–	–	–	–
OC[C@H]1O[C@@H](O[C@H]2[C@H](O)[C@@H](O)C(O)O[C@@H]2CO)[C@H](O)[C@@H](O)[C@H]1O (stereo partly shown) [Lactose, lactose]	–	–	–	–	–	–	–	–	–	–	5.8	5.1-5.4	G + c, +++ (About 100 bacteria or more per field vision under oil-immersion lens, even uncountable)	G + c, + (1-9 bacteria per field of vision under oil-immersion lens)	G − c, − (No or less than one bacterium per field of version under oil-immersion lens)	G − c, − (No or less than one bacterium per field of version under oil-immersion lens)	G + b, ++ (About 10-99 bacteria per field of vision under oil-immersion lens)	G + b, ++ (About 10-99 bacteria per field of vision under oil-immersion lens)	G − b, + (1-9 bacteria per field of vision under oil-immersion lens)	G − b, + (1-9 bacteria per field of vision under oil-immersion lens)
O=C(CO)[C@@H](O)[C@H](O)[C@H](O)CO [Fructose, fructose]	5.4-5.8	5.4-5.8	G + c, + (1-9 bacteria per field of vision under oil-immersion lens)	G + c, + (1-9 bacteria per field of vision under oil-immersion lens)	G − c, − (No or less than one bacterium per field of version under oil-immersion lens)	G − c, − (No or less than one bacterium per field of version under oil-immersion lens)	G + b, ++ (About 10-99 bacteria per field of vision under oil-immersion lens)	G + b, +++ (About 100 bacteria or more per field vision under oil-immersion lens, even uncountable)	G − b, + (1-9 bacteria per field of vision under oil-immersion lens)	G − b, + (1-9 bacteria per field of vision under oil-immersion lens)	–	–	–	–	–	–	–	–	–	–
dextrin	–	–	–	–	–	–	–	–	–	–	6.2	5.8	G + c, + (1-9 bacteria per field of vision under oil-immersion lens)	G + c, − (No or less than one bacterium per field of version under oil-immersion lens)	G − c, − (No or less than one bacterium per field of version under oil-immersion lens)	G − c, − (No or less than one bacterium per field of version under oil-immersion lens)	G + b, +++ (About 100 bacteria or more per field vision under oil-immersion lens, even uncountable)	G + b, ++ (About 10-99 bacteria per field of vision under oil-immersion lens)	G − b, ++ (About 10-99 bacteria per field of vision under oil-immersion lens)	G − b, + (1-9 bacteria per field of vision under oil-immersion lens)
OC[C@H]1O[C@@H](O[C@@H]2[C@@H](CO)OC(O)(CO)[C@H]2O)[C@H](O)[C@@H](O)[C@H]1O (mixture of isomers) [Lactulose, lactulose]	–	–	–	–	–	–	–	–	–	–	5.8-6.2	6.2	G + c, + (1-9 bacteria per field of vision under oil-immersion lens)	G + c, + (1-9 bacteria per field of vision under oil-immersion lens)	G − c, − (No or less than one bacterium per field of version under oil-immersion lens)	G − c, − (No or less than one bacterium per field of version under oil-immersion lens)	G + b, +++ (About 100 bacteria or more per field vision under oil-immersion lens, even uncountable)	G + b, ++ (About 10-99 bacteria per field of vision under oil-immersion lens)	G − b, + (1-9 bacteria per field of vision under oil-immersion lens)	G − b, + (1-9 bacteria per field of vision under oil-immersion lens)
O=C[C@H](O)[C@@H](O)[C@H](O[C@@H]1O[C@H](CO)[C@@H](O)[C@H](O)[C@H]1O)[C@H](O)CO [Cellobiose, cellobiose]	–	–	–	–	–	–	–	–	–	–	5.8	5.8	G + c, + (1-9 bacteria per field of vision under oil-immersion lens)	G + c, + (1-9 bacteria per field of vision under oil-immersion lens)	G − c, − (No or less than one bacterium per field of version under oil-immersion lens)	G − c, − (No or less than one bacterium per field of version under oil-immersion lens)	G + b, ++ (About 10-99 bacteria per field of vision under oil-immersion lens)	G + b, ++ (About 10-99 bacteria per field of vision under oil-immersion lens)	G − b, + (1-9 bacteria per field of vision under oil-immersion lens)	G − b, + (1-9 bacteria per field of vision under oil-immersion lens)
OC[C@H]1O[C@H](O[C@H]2O[C@H](CO)[C@@H](O)[C@H](O)[C@H]2O)[C@H](O)[C@@H](O)[C@@H]1O [Mycose, mycose]	–	–	–	–	–	–	–	–	–	–	4.8	4.6-4.8	G + c, + (1-9 bacteria per field of vision under oil-immersion lens)	G + c, + (1-9 bacteria per field of vision under oil-immersion lens)	G − c, − (No or less than one bacterium per field of version under oil-immersion lens)	G − c, − (No or less than one bacterium per field of version under oil-immersion lens)	G + b, ++ (About 10-99 bacteria per field of vision under oil-immersion lens)	G + b, +++ (About 100 bacteria or more per field vision under oil-immersion lens, even uncountable)	G − b, + (1-9 bacteria per field of vision under oil-immersion lens)	G − b, ++ (About 10-99 bacteria per field of vision under oil-immersion lens)
